We go through 7 compounds from paper PMC6062912, “The Evolutionary Conserved γ-Core Motif Influences the Anti-Candida Activity of the Penicillium chrysogenum Antifungal Protein PAF” (Frontiers in Microbiology, 2018).

What all share (format): cell-based, Candida albicans
For assay [1], the system named is C. albicans. To be noted: for MIC: 24 h; for antifungal activity of scrambled peptide analog compared with original peptide: compared with Pγ, Pγ^var and Pγ^opt, respectively, data not shown. As to the method:
Fungal strains used in this study are listed in Supplementary Table S1 and composition of growth media is given in Supplementary Table S2. All P. chrysogenum shaking cultures were inoculated with 2 × 10^8 conidia, in 200 mL defined minimal medium (PcMM) for protein expression or complete medium (CM) before transformation, and grown at 25°C as described ([Sonderegger et al., 2016]). For conidial suspension generation from surface cultures, P. chrysogenum was grown on PcMM agar at 25°C. C. albicans was used as PAF-sensitive model organism and was cultivated on yeast extract peptone dextrose (YPD) agar at 37°C. For growth inhibition and susceptibility assays, C. albicans was grown in 20-fold diluted potato dextrose broth (PDB, Sigma-Aldrich) at 30°C, pH 5.5 ([Huber et al., 2018]).
The MIC of all protein and peptide variants was determined on C. albicans with broth microdilution assays in 96-well microtiter plates (Nunclon Delta, Thermo Fisher Scientific). From a fresh C. albicans overnight culture on YPD agar, cells were harvested with an inoculation loop and suspended in 0.05× PDB (Sigma-Aldrich) ([Arendrup et al., 2016]). The cell number was determined with a counting chamber (Bürker) and the cell number was adjusted to 10^4 mL^-1. In each well, 10^3 cells were incubated with increasing concentrations of antifungal proteins or peptides in a final volume of 200 μL 0.05× PDB. The plates were incubated for 24 h at 30°C before the growth was determined by measuring the optical density (OD620nm) with a multi-mode microplate reader (FLUOstar Omega, BMG Labtech). The MIC was defined as the protein concentration that inhibited growth by ≥90% compared to the untreated control, which was referred as 100% growth.

Assay [2] relates to C. albicans. Conditions: 2 h. The method, then:
Fungistatic or fungicidal activities were determined by incubating C. albicans (10^4 cells mL^-1) in 0.05× PDB with proteins and peptides at 1× MIC and 2× MIC of at 30°C under continuous shaking (800 rpm) in a Thermomixer Comfort (Eppendorf). At defined time points, aliquots were taken and appropriate dilutions were plated on YPD agar in duplicates to promote growth of viable cells. Agar plates were incubated at 37°C for 24 h to count colony forming units (cfu) ([Huber et al., 2018]).
The determination of the MIC concentration is a well-established, reliable method to elucidate the growth reducing effect of an antifungal compound. […] To gain deeper insight into the antifungal mechanism of the generated protein and peptide variants, we compared them first for their fungicidal potential. In liquid culture C. albicans was exposed to 1× MIC and 2× MIC concentrations of each protein and peptide. After certain time points aliquots were taken and appropriate dilutions were spread on agar plates to allow colony formation of viable cells. The cfu were counted and compared to the untreated control, which was set to be 100%. […] The candidacidal effects were aggravated with higher protein concentrations.

Assay [3] relates to C. albicans. Conditions: 10 min exposure, mean ± SD, untreated control 1.8 ± 1.2%. As to the method: (§1) To analyze changes in cell size and to assess kinetics of cell death of C. albicans upon antifungal treatment flow cytometry was applied. For both experiments, 10^4 cells mL^-1 was incubated in 0.05× PDB with the desired AMP concentration for different time points. The incubation was performed in 1.5 mL reaction tubes at 30°C under continuous shaking at 800 rpm in a Thermomixer Comfort (Eppendorf). After incubation, the cells were centrifuged at 4°C with 3,000 ×g for 3 min. For cell size determination, the supernatant was removed and the cells were resuspended and fixed in PBS containing 3.7% (v/v) formaldehyde before changes in cell size were measured by plotting SSC against FSC. C. albicans that were incubated at 95°C for 120 min served as controls. Microscopic control-images were taken with a fluorescence microscope (Axioplan, Zeiss), equipped with a camera (Axiocam 503 mono, Zeiss) and excitation/emission filters (365/420 nm for blue fluorescence and 546/590 or 565/620 nm for red fluorescence, Zeiss). Image acquisition was performed with ZEN 2 microscope software (Zeiss, blue edition) and the cell area was measured with ImageJ 1.52d software ([Schindelin et al., 2012]).
For dead-cell staining, prior to fixation, the cells were incubated in the dark for 30 min at 4°C with 100 μL PBS containing 0.1 μL LIVE/DEAD^TM Fixable Far Red Dead Cell Stain (Thermo Fisher Scientific). The cells were then washed once in PBS and fixed in PBS containing 3.7% formaldehyde. Ethanol-inactivated dead C. albicans served as a positive staining control. The samples were then analyzed by FACS (FACSVerse Flow Cytometer, BD Biosciences), equipped with BD FACSuite software (v1.0.6.5230, BD Biosciences). Dead cells were detected at Excitation/Emission wavelength of 650/665 nm. Stained, live, and dead Candida cells were used as controls to discriminate populations and to set the gates.
To elucidate the AMPs candidacidal activities at an early stage and to compare their time and dose-dependent cell killing in more detail, fluorescence activated cell sorting (FACS) analysis with dead-cell staining was applied. To this end, C. albicans was exposed to 1× and 2× MIC of the respective AMPs for 10 min, stained with the dead-cell marker, and fixed with formaldehyde. With FACS analyses, 1.8 ± 1.2% dead cells were detected in the untreated control (Figure 3).

For a further assay, the system named is C. albicans biofilms. Briefly: Anti-biofilm activity, FDA fluorescence. Conditions: AMP 0–40 μM for 24 h at 30°C; for concentration inhibiting cell metabolism in biofilm (FDA fluorescence): 24-h-old biofilms; for concentration with anti-biofilm (inhibitory) activity, extinction of FDA fluorescence: 1 h old (young) biofilms. As to the method: The antifungal activity against C. albicans biofilms was determined in 96-well microtiter plates (Nunclon Delta, Thermo Fisher Scientific). Cells (10^5) in 100 μL 0.05× PDB were distributed per well and plates were incubated at 37°C for up to 24 h to allow biofilm formation. After cell adherence, the microtiter plates were washed once with 0.05× PDB and the test substances were added in increasing concentrations in 100 μL 0.05× PDB per well. H2O2 served as a control for cell killing. The plates were further incubated at 30°C for 24 h. The wells were washed once with 0.05× PDB and 100 μL of FDA solution (40 μg mL^-1 in 0.05× PDB) was added to the wells. Wells containing only FDA solution (40 μg mL^-1 in 0.05× PDB) were used as blank background control. The plates were incubated for 1 h at 37°C in the dark before the fluorescence signal intensity was measured in a multi-mode microplate reader (FLUOstar Omega, BMG Labtech) with excitation and emission wavelengths of 485 and 520 nm. All experiments were prepared at least in duplicates and repeated at least twice.
Next, we analyzed the potential of the AMPs to inhibit C. albicans biofilm formation. Low susceptibility of biofilms to antifungal agents is often a limiting factor in anti-Candida treatment. To this end, C. albicans cells were distributed in 96-well microtiter plates, allowed to settle down, and to develop biofilms for 1 and 24 h. Then, planktonic cells were washed off and AMPs were added to the biofilms for another 24 h in a concentration range of 0–40 μM. The biofilms were then quantified by adding FDA to the wells. Metabolically active cells convert non-fluorescent FDA into highly fluorescent fluorescein by intracellular enzymatic activity ([Peeters et al., 2008]). The resulting fluorescence signal intensity from AMP-treated biofilms was measured and compared to untreated conditions. […] Twenty-four-hour-old biofilms, however, were resistant against PAF, PAF^var, and PAF^opt in the investigated concentration range (data not shown).

For assay [4], the system named is C. albicans. Briefly: Cell size reduction (FSC) by flow cytometry. To be noted: 1× MIC and 2× MIC, 10 and 30 min. The method, then: as §1
Cell shrinkage of C. albicans is a sign for cell death when exposed to AMPs ([Lee et al., 2017]). We therefore analyzed the changes in size of AMP-treated C. albicans cells by recording the FSC with flow cytometry. To this end, C. albicans cells were analyzed after 10 and 30 min of exposure to 1× MIC and 2× MIC of AMPs (Figure 5). Heat-killed and untreated C. albicans cells served as positive and negative controls, respectively (Supplementary Figure S8). […] Pγ^var and Pγ^opt caused a very prominent decrease in the FSC value compared to the untreated cell population when applied at 2× MIC. Pγ^var and Pγ^opt reduced the average cell size after a 10-min treatment by 28 ± 13 (P = 0.022) and 18 ± 10% (P = 0.041), respectively, and after 30 min the cell size was reduced by 48 ± 8 (P < 0.001) and 37 ± 12% (P = 0.007), respectively.

Where [5] appears, read: 1× MIC, 0.05× PDB, 30°C, mean ± SD.

≈ marks a conversion by molar mass, not a printed value. Where “and” joins values, the source holds several entries; their conditions need not be identical. Identical values can stand only once. Like-named read-outs stand apart in the source and are kept apart here. Positions of bridges follow the written chain, without caps; N, C: chain ends. Residues, ends and D or L forms follow the SMILES beside them. *: point of attachment. Acm = CC(=O)NC*

In the assay on C. albicans [1], `CC(=O)N[C@@H](CCCCN)C(=O)N[C@@H](Cc1ccc(O)cc1)C(=O)N[C@H](C(=O)NCC(=O)N[C@@H](CCCCN)C(=O)N[C@@H](CS)C(=O)N[C@H](C(=O)N[C@@H](CCCCN)C(=O)N[C@@H](CO)C(=O)N[C@@H](CCCCN)C(=O)N[C@@H](CC(N)=O)C(=O)N[C@@H](CCC(=O)O)C(=O)N[C@@H](CS)C(=O)N[C@@H](CCCCN)C(N)=O)[C@@H](C)O)[C@@H](C)O` [Pγ] (Ac-KYTGKCTKSKNECK-NH2) yielded an MIC of 10.0 µM (≈ 16.6 µg/mL). In addition, the entries for the “Candida cells killed (cfu vs untreated control)” value in the assay on C. albicans [2] (setting [5]) and in the assay on C. albicans [2] (2) were “no killing effects” and 31 ± 23%, respectively. In addition, the “dead cells (cells killed), FACS dead-cell staining” value with C. albicans [3] (1× MIC) and in the assay on C. albicans [3] (2× MIC) was “No significant cell-killing” throughout. The “concentration inhibiting cell metabolism in biofilm (FDA fluorescence)” value in the assay on C. albicans biofilms is “no impact”. For the same compound, the “concentration with anti-biofilm (inhibitory) activity, extinction of FDA fluorescence” value with C. albicans biofilms was determined as 40 µM. Also, the cell shrinkage result in the assay on C. albicans [4] was “did not result in cell shrinkage”.
With `CC(=O)N[C@@H](CCCCN)C(=O)N[C@@H](Cc1ccc(O)cc1)C(=O)N[C@H](C(=O)NCC(=O)N[C@@H](CCCCN)C(=O)N[C@H]1CSSC[C@@H](C(=O)N[C@@H](CCCCN)C(N)=O)NC(=O)[C@H](CCC(=O)O)NC(=O)[C@H](CC(N)=O)NC(=O)[C@H](CCCCN)NC(=O)[C@H](CO)NC(=O)[C@H](CCCCN)NC(=O)[C@H]([C@@H](C)O)NC1=O)[C@@H](C)O` [Pγ_ox] (Ac-KYTGKCTKSKNECK-NH2; disulfide 6-13), in the assay with C. albicans [1], the MIC turned out to be 40 µM (≈ 66.3 µg/mL).
`CC(=O)NCSC[C@H](NC(=O)[C@H](CCC(=O)O)NC(=O)[C@H](CC(N)=O)NC(=O)[C@H](CCCCN)NC(=O)[C@H](CO)NC(=O)[C@H](CCCCN)NC(=O)[C@@H](NC(=O)[C@H](CSCNC(C)=O)NC(=O)[C@H](CCCCN)NC(=O)CNC(=O)[C@@H](NC(=O)[C@H](Cc1ccc(O)cc1)NC(=O)[C@H](CCCCN)NC(C)=O)[C@@H](C)O)[C@@H](C)O)C(=O)N[C@@H](CCCCN)C(N)=O` [Pγ_prot] (Ac-KYTGKC(Acm)TKSKNEC(Acm)K-NH2) came in with an MIC against C. albicans [1] of 40 µM (≈ 72 µg/mL).
For the compound “CTNKYSCKKGETKK [Pγ_scr, scrambled peptide analog of Pγ]”, in the assay with C. albicans [1], the “antifungal activity of scrambled peptide analog compared with original peptide” value was “same antifungal activity”.
As for “Penicillium chrysogenum antifungal protein [PAF]”, in the assay on C. albicans [1] (10^3 cells per well in 200 μL 0.05× PDB, 30°C, OD620nm, MIC = concentration inhibiting growth by ≥90% vs untreated control), the MIC is 5 µM and 5.0 µM. For the same compound, the “Candida cells killed (cfu vs untreated control)” value in the assay on C. albicans [2] (setting [5]) was “no detectable killing activity”; in the assay on C. albicans [2] (2× MIC, 0.05× PDB, 30°C, mean ± SD), 26 ± 6%. Moreover, the “dead cells (cells killed), FACS dead-cell staining” value in the assay with C. albicans [3] (1× MIC) and in the assay with C. albicans [3] (2× MIC) was “did not cause significant increase” in each case. For the same compound, in the assay with C. albicans biofilms, the “concentration inhibiting cell metabolism in biofilm (FDA fluorescence)” value is listed as “resistant”. Also, the “concentration with anti-biofilm (inhibitory) activity, extinction of FDA fluorescence” value with C. albicans biofilms is “only moderately reduced the metabolic activity”. Besides, the cell shrinkage entry in the assay with C. albicans [4] is reported as “did not result in cell shrinkage”.
Regarding “TCKKNKKKKYGKTC [Pγ^opt_scr, scrambled peptide analog of Pγ^opt]”, the “antifungal activity of scrambled peptide analog compared with original peptide” value in the assay on C. albicans [1] is recorded as “same antifungal activity”.
The same measure, in the same setting: with “TNGKKYKKKEYCCK [Pγ^var_scr, scrambled peptide analog of Pγ^var]” the entry was “same antifungal activity”.
